Experimental data published in patent US4170647A, “Method for the control of Arizona hinshawii in poultry with an alkylated BM123γ-type antibiotic” (American Cyanamid Company, priority 1978, dated 1979).

Tested on: Arizona hinshawii
Experiment: In vitro activity against six strains of Arizona hinshawii (minimum inhibitory concentration, broth dilution)
Assay type: cell-based
Details: trypticase soy broth, 24 hours at 37° C.
Description: Serial, two-fold dilutions of drugs are prepared in trypticase soy broth (TSB). To each tube containing 5 ml of broth is added 0.1 ml of a 10^-3 dilution of bacterial inoculum (six strains of Arizona hinshawii, originally isolated from clinical cases of Arizonosis of turkeys), adjusted prior to dilution to 44% transmission at 645 mμ. An inoculated broth, containing no drug is included as growth control for each strain tested. The minimum inhibitory conentration (MIC) is read as the highest dilution of drug showing no visble growth after 24 hours incubation at 37° C.

Measured: Minimum Inhibitory Concentration

Gentamicin
2 µg/mL: Isolate Number 1 | Isolate Number 2 | Isolate Number 3 | Isolate Number 4 | Isolate Number 5 | Isolate Number 6
